Test results as given in publication PMC7596334 (Redox Biology, 2020).

Target: T1, 15LOX2 (Homo sapiens, UniProt O15296)
T1 sequence (O15296 1-676): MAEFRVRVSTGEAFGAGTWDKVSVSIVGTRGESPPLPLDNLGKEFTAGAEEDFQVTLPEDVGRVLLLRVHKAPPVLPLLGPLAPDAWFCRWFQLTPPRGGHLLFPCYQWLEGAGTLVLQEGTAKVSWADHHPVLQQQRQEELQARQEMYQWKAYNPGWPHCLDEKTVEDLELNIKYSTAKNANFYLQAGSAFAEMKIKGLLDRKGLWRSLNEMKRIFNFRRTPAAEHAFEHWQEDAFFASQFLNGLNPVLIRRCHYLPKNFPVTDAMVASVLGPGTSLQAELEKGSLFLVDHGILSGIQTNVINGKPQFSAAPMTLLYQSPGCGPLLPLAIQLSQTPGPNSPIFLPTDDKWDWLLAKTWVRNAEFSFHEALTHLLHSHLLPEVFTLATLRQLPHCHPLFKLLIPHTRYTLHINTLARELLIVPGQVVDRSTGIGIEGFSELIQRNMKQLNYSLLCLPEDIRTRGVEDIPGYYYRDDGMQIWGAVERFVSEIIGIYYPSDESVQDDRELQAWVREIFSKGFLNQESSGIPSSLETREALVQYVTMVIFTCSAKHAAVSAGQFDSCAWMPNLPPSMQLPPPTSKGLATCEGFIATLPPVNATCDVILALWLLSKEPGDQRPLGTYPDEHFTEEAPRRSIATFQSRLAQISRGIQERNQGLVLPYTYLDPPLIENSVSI
T1 sequence (P30086 2-187 partner): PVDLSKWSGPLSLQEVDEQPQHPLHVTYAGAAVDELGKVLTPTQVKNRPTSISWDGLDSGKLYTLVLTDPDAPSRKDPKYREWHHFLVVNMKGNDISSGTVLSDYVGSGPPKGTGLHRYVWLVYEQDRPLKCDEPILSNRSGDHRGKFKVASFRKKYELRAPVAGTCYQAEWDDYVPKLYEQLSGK
Type: biochemical

## CCOC(=O)c1ccc(NC2CCCCC2)c(N)c1 [Fer-1, Ferrostatin-1]
  IC50: 10.1 nM
